Measurements published in PMC7367283, “A PIP2 substitute mediates voltage sensor-pore coupling in KCNQ activation” (Communications Biology, 2020).
Several values for one entry are separate records, joined by “and”; a condition that tells them apart may be missing. Identical values can stand only once.

Tests used:
Test in all cases: Two-electrode voltage clamp of mutant KCNQ1 in Xenopus oocytes
Format in all cases: cell-based
KCNQ1 S253A = KCNQ1 S253A (Homo sapiens, UniProt P51787, S253A)
Excerpt: (§1) In a previous study, mutation of residues in the predicted PIP2-binding site reduced KCNQ1 currents. CP1 modifies voltage-dependent activation of KCNQ1 channels by shifting the voltage dependence of channel opening, measured as the voltage dependence of the conductance (G–V) relationship, to more negative voltages (Fig. 1c) among other characteristics (see below). We made mutations to the residues around the CP1-interacting pocket as indicated by molecular docking (Fig. 1b), and examined the effects of the mutations on the CP1-induced shift of the G–V relationship. The mutations of the KCNQ1 residues that interact with CP1 in docking simulations reduced the shift of the G–V relationship (Fig. 1c, d), supporting the interaction of these residues with CP1.
(§2) Complementary DNA (cDNA) encoding human KCNQ1 (UniProtKB/Swiss‐Prot under accession no. P51787), KCNQ2 (O43526), KCNQ3 (O43525), KCNE1 (P15382), Kir1.1 (P48048), hERG (Q12809), KV4.2 (Q63881), NaV1.5 (Q14524), NaV β1 (Q07699), CaV1.2 (Q13936), CaV β1a (Q02641), CaV α2/δ1 (P54289), and HCN4 (Q9Y3Q4) were subcloned into oocyte expression vectors, respectively. Site-directed mutations of the KCNQ1 channel were all produced by overlap extension polymerase chain reaction (PCR) with high-fidelity Pfu polymerase (Stratagene, CA). The presence of the desired mutation was verified by sequencing the PCR-amplified regions. All the primer sequences used in this study are available in Supplementary Table 1. The complementary RNA (cRNA) of all these channels and mutations was transcribed in vitro with the T3, T7, or SP6 polymerase mMessage mMachine kit (Invitrogen, Thermo Fisher Scientific, MO).
(§3) The use of Xenopus laevis to obtain oocytes was approved by the Washington University Animal Studies Committee (protocol #20190030). Oocytes were manually dispersed and digested with collagenase (0.5 mg/ml, Sigma-Aldrich, Saint Louis, MO) to remove the follicle cell layer. Stage V or VI oocytes were selected and injected with cRNAs (9.2 ng) of channel or mutations. Especially, to characterize IKs, a mix of cRNAs at a molar ratio 4:1 (KCNQ1:KCNE1) was injected. For KCNQ2/KCNQ3, the molar ratio was 1:1 (KCNQ2:KCNQ3). For sodium channels, a 3:1 molar ratio (β1:NaV1.5) and for calcium channels a weight ratio 1:1:1 (β1:α2/δ1:CaV1.2) was injected, respectively. Injected oocytes were incubated in ND96 solution containing (in mM) 96 NaCl, 2 KCl, 1.8 CaCl2, 1 MgCl2, and 5 HEPES, pH 7.6, supplemented with 2.5 mM Na pyruvate and 1% penicillin–streptomycin, at 18 °C for 3–7 days before recording.
(§4) The whole-oocyte ionic currents were recorded with a GeneClamp 500B amplifier (Axon Instruments, CA) or iTEV90 amplifier (HEKA, Germany) and then sampled at 1 kHz and low-pass-filtered at 2 kHz. The Patchmaster software (HEKA, Germany) was used to acquire data. The Kir1.1 current was recorded with a high K^+ bath solution containing (in mM) 96 KCl, 4 NaCl, 1 CaCl2, 2 MgCl2, and 10 HEPES, pH 7.3–7.4. The HCN4 current was recorded in ND66 solution containing (in mM) 66 NaCl, 32 KCl, 1.8 CaCl2, 1 MgCl2, and 5 HEPES, pH 7.6. All the other potassium channels were recorded in ND96 solution. The currents of CaV1.2 channel were recorded in 40 mM Ba^2+ bath solution containing (in mM) 40 Ba(OH)2, 50 TEA-OH, 2 KOH, and 5 HEPES, adjusted to pH 7.4 with methanesulfonic acid. CP1 (DISODIUM 5-BROMO-2-[9-CHLORO-3-(SULFONATOOXY) NAPHTHO [1,2-B] THIEN-2-YL]-1H-INDOL-3-YL SULFATE, Sigma-Aldrich, MO) and Chromanol 293B (Sigma-Aldrich, MO) were dissolved in bath solutions. All the chemicals were purchased from Sigma-Aldrich. To measure the I–V relations of the Kir1.1 channel, the test voltage was set from −100 to +60 mV for 1 s with 20-mV increments. The test pulses were stepped from a holding potential of 0 mV and then stepped back to 0 mV. The HCN4 currents were recorded by a test pulse between −30 and −140 mV in 10-mV step from a holding potential of −30 mV. […]

KCNQ1 R249A/S253A = KCNQ1 R249A/S253A (Homo sapiens, UniProt P51787, R249A/S253A); conditions: 10 µM CP1, individual oocytes
Excerpt: as §1, §2, §3, §4

KCNQ1 K354A/K358A = KCNQ1 K354A/K358A (Homo sapiens, UniProt P51787, K354A/K358A)
Excerpt: as §1, §2, §3, §4

KCNQ1 R243A/R249A = KCNQ1 R243A/R249A (Homo sapiens, UniProt P51787, R243A/R249A); conditions: 10 µM CP1, individual oocytes
Excerpt: as §1, §2, §3, §4

KCNQ1 R259A = KCNQ1 R259A (Homo sapiens, UniProt P51787, R259A); conditions: 10 µM CP1, individual oocytes
Excerpt: as §1, §2, §3, §4

O=S(=O)([O-])Oc1c(-c2sc3c(ccc4cccc(Cl)c43)c2OS(=O)(=O)[O-])[nH]c2ccc(Br)cc12.[Na+].[Na+] [CP1, DISODIUM 5-BROMO-2-[9-CHLORO-3-(SULFONATOOXY) NAPHTHO [1,2-B] THIEN-2-YL]-1H-INDOL-3-YL SULFATE]
G/Gmax (KCNQ1 S253A; 10 µM CP1, -10 mV): 1.0000 | G/Gmax (KCNQ1 S253A; 10 µM CP1, -20 mV): 0.9987 | G/Gmax (KCNQ1 S253A; 10 µM CP1, -30 mV): 0.9693 | G/Gmax (KCNQ1 S253A; 10 µM CP1, -40 mV): 0.9339 | G/Gmax (KCNQ1 S253A; 10 µM CP1, -50 mV): 0.8910 | G/Gmax (KCNQ1 S253A; 10 µM CP1, -60 mV): 0.8327 | G/Gmax (KCNQ1 S253A; 10 µM CP1, -70 mV): 0.7485 | G/Gmax (KCNQ1 S253A; 10 µM CP1, -80 mV): 0.6141 | G/Gmax (KCNQ1 S253A; 10 µM CP1, -90 mV): 0.4531 | G/Gmax (KCNQ1 S253A; 10 µM CP1, -100 mV): 0.2784 | G/Gmax (KCNQ1 S253A; 10 µM CP1, -110 mV): 0.1217 | G/Gmax (KCNQ1 S253A; 10 µM CP1, -120 mV): 0.0000 | ∆V1/2 (KCNQ1 S253A; 10 µM CP1, individual oocytes): 62.813 mV and 60.7614 mV and 50.2508 mV and 66.8458 mV | ∆V1/2 (KCNQ1 R249A/S253A): 49.1729 mV and 54.4047 mV and 38.3473 mV | G/Gmax (KCNQ1 K354A/K358A; 10 µM CP1, 0 mV): 0.9071 | G/Gmax (KCNQ1 K354A/K358A; 10 µM CP1, 10 mV): 0.9519 | G/Gmax (KCNQ1 K354A/K358A; 10 µM CP1, 20 mV): 0.9897 | G/Gmax (KCNQ1 K354A/K358A; 10 µM CP1, 30 mV): 1.0000 | G/Gmax (KCNQ1 K354A/K358A; 10 µM CP1, -10 mV): 0.8497 | G/Gmax (KCNQ1 K354A/K358A; 10 µM CP1, -20 mV): 0.7541 | G/Gmax (KCNQ1 K354A/K358A; 10 µM CP1, -30 mV): 0.6165 | G/Gmax (KCNQ1 K354A/K358A; 10 µM CP1, -40 mV): 0.4576 | G/Gmax (KCNQ1 K354A/K358A; 10 µM CP1, -50 mV): 0.3124 | G/Gmax (KCNQ1 K354A/K358A; 10 µM CP1, -60 mV): 0.2094 | G/Gmax (KCNQ1 K354A/K358A; 10 µM CP1, -70 mV): 0.1390 | G/Gmax (KCNQ1 K354A/K358A; 10 µM CP1, -80 mV): 0.0950 | G/Gmax (KCNQ1 K354A/K358A; 10 µM CP1, -90 mV): 0.0670 | G/Gmax (KCNQ1 K354A/K358A; 10 µM CP1, -100 mV): 0.0415 | G/Gmax (KCNQ1 K354A/K358A; 10 µM CP1, -110 mV): 0.0111 | G/Gmax (KCNQ1 K354A/K358A; 10 µM CP1, -120 mV): 0.0033 | ∆V1/2 (KCNQ1 K354A/K358A; 10 µM CP1, individual oocytes): 24.6605 mV and 42.476 mV and 38.8398 mV and 35.894 mV | ∆V1/2 (KCNQ1 R243A/R249A): 58.531 mV and 59.5008 mV and 36.2737 mV and 44.7577 mV | ∆V1/2 (KCNQ1 R259A): 40.9982 mV and 50.0211 mV and 57.3239 mV and 73.9485 mV
